{
  "source": "patent US20060287251A1",
  "about": "“Combination therapy for glycaemic control” (priority 2003, published 2006)",
  "tested_on": "diabetic Zucker (fa/fa) rats",
  "test": "Glutaminyl thiazolidine and Metformin alone or in combination, glycemic control in diabetic Zucker (fa/fa) rats",
  "format": "in vivo, rat",
  "details": "b.i.d. oral; for reactive and absolute G-AUC: p<0.05 vs. Control; for glucose tolerance curve in the OGTT: vs. Control",
  "procedure": "Ten or eleven weeks old male Zucker (fa/fa) rats were purchased from Charles River (Sulzfeld, Germany). Animals were kept under standardized semi-barrier conditions with controlled temperature (22±2° C.) on a 12/12 hours light/dark cycle (light on at 06:00 a.m.). Standard pelleted chow (ssniff®, Soest, Germany) and tap water acidified with HCl were allowed ad libitum. At the age of 12 weeks the animals (N=42) were divided in random order into six experimental groups to be medicated. Definition of the Experimental Groups for the Medications (GT=glutaminyl thiazolidine):\nThe single or combined doses per kg b.w. were solved in 5 mL dist. water for oral administration.\nThe study was started with the 12 to 13 weeks old Zucker (fa/fa) rats. At the beginning of the study an OGTT was performed (2 g glucose/kg body weight (b.w.); administration volume: 5 mL/kg of a 40% solution; B. Braun Melsungen, Melsungen, Germany) after a 16 h fast. […] Dosing was performed at t=5 min before OGTT by gavage.\nBlood samples were taken from tail veins to measure blood glucose and serum insulin at −15, ±0 min, 15, 30, 60, 90, 120 and 180 min (the latter time without insulin samples) with respect to time of glucose administration.\nAfter the first OGTT the animals in the groups were dosed twice daily with the respective drugs at 08:00 AM and at 04:00 PM, respectively:\nDuring the two weeks of medication morning blood glucose was measured before the 08:00 AM medication at Monday, Wednesday and Friday.\nFood intake was determined every day during the time of medication.\nAll the animals were weighted three times per week at 7:30 AM.\nA second OGTT was performed after two weeks of medication (Day 15). The food was withdrawn at 04:00 PM the day before (16 h fast). The OGTT was performed with pre-medication at −5 min and oral glucose loading at ±0 min. Blood samples were taken from tail veins to measure blood glucose, and serum insuline at −15, ±0 min, 15, 30, 60, 90, 120 and 180 min (the latter time without insulin samples).\nGlycated hemoglobin was measured before (Day −7) and on Day 18.\nGlucose-For determination of glucose 20 μL blood were collected at −15, ±0 min (before OGTT) and 15, 30, 60, 90, 120 and 180 min post OGTT.\nInsulin-Insulin concentrations were assayed by the antibody RIA method (Linco Research, Inc. St. Charles, Mo., USA).\nGlycated haemoglobin-Percentage of glycated hemoglobin A (HbA1c) was estimated with the “DCA 2000R Hämoglobin A1c-Reagenz kit”(Bayer Vital GmbH, Fernwald, Germany).\nThe body weight was measured using a platform balance (Scaltec, Heiligenstadt, Germany).\nMixed venous blood samples from the tails were collected into 20 μL glass capillaries, which were placed in standard tubes filled with 1 ml solution for hemolysis (blood glucose measurement) and in sample tubes for serum insulin (50 μL blood).\nRaw data of glucose analysis were provided by IDK to probiodrug in Excel format as soon as possible. Data for each drug and each parameter (glucose, insulin) were summarized by descriptive statistics (mean, SEM). […] Changes from baseline were calculated and summarized by descriptive statistic.",
  "key": {"[1]": {"details": "GT 60 mg/kg b.w. and/or Metformin 125 mg/kg b.w. (Met-low)"}, "[2]": {"details": "Metformin 300 mg/kg b.w. (Met-high) with or without GT 60 mg/kg b.w."}},
  "data": [
    {"smiles": "CN(C)C(=N)N=C(N)N", "note": "[Metformin, 1,1-Dimethylbiguanidine]", "values": [
      {"measurement": "reactive and absolute G-AUC", "setting": "[1]", "value": "significantly reduced"},
      {"measurement": "glucose tolerance curve in the OGTT", "setting": "[1]", "value": "significantly improved glucose tolerance curves"},
      {"measurement": "reactive and absolute G-AUC", "setting": "[2]", "value": "once more lowered"},
      {"measurement": "glucose tolerance curve in the OGTT", "setting": "[2]", "value": "further improvement of glucose tolerance curve"}
    ]}
  ]
}
